The results in this text go back to ChEMBL document CHEMBL5696442, “Discovery of type II inhibitors of TGFβ-activated kinase 1 (TAK1) and mitogen-activated protein kinase kinase kinase kinase 2 (MAP4K2)” (J Med Chem, 2015).

Calls of active or inactive are those of the source. No cut-off for these calls is given here.

In general, inhibition refers to the change of the read-out against control, counted positive when it falls. As a reminder, the residual activity is the activity still measured, relative to the control. Higher therefore signals a small loss of activity.

Test [1] concerns the target RAF proto-oncogene serine/threonine-protein kinase (Homo sapiens, UniProt P04049). The test is described as follows: Inhibition of RAF1 (unknown origin) at 1 uM by Ambit Kinomescan binding assay relative to control.
For test [2], the target named is Tyrosine-protein kinase Fyn (Homo sapiens) (UniProt P06241). The test is described as follows: Inhibition of FYN (unknown origin) at 1 uM by Ambit Kinomescan binding assay relative to control; values are per cent of control.
The target of test [3] is Ephrin type-A receptor 3 (Homo sapiens) (UniProt P29320). The test is described as follows: Inhibition of EPHA3 (unknown origin) at 1 uM by Ambit Kinomescan binding assay relative to control; values are per cent of control.
Sequence of Ephrin type-A receptor 3 (Homo sapiens) (P29320 whole entry): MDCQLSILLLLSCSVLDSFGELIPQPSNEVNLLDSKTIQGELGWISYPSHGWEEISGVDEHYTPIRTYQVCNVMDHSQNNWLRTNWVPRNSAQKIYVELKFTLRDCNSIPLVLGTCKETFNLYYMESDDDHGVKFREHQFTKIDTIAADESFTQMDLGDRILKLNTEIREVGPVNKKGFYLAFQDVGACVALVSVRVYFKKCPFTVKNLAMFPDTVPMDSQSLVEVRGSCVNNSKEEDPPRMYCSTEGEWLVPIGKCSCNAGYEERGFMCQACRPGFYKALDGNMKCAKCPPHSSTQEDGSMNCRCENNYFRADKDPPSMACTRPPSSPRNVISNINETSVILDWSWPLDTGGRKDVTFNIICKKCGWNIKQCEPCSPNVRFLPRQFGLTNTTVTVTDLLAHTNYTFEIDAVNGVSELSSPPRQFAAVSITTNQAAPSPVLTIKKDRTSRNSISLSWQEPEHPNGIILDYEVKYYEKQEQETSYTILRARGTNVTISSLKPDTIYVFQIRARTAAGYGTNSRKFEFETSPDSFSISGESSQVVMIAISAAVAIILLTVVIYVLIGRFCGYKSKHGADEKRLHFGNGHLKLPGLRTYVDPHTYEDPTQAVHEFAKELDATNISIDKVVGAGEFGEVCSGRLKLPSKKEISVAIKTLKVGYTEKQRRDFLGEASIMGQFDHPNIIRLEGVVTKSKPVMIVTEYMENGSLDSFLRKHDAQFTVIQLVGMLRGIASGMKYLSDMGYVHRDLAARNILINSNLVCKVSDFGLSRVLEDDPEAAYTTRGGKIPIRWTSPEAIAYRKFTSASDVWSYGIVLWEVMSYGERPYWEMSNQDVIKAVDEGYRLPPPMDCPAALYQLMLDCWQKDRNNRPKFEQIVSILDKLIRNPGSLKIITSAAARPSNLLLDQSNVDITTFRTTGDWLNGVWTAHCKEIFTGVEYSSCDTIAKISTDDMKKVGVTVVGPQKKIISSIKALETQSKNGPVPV
In test [4] the target is Serine/threonine-protein kinase 17A (Homo sapiens) (UniProt Q9UEE5). The test is described as follows: Inhibition of DRAK1 (unknown origin) at 10 uM by Ambit Kinomescan binding assay.
Sequence of Serine/threonine-protein kinase 17A (Homo sapiens) (Q9UEE5 whole entry): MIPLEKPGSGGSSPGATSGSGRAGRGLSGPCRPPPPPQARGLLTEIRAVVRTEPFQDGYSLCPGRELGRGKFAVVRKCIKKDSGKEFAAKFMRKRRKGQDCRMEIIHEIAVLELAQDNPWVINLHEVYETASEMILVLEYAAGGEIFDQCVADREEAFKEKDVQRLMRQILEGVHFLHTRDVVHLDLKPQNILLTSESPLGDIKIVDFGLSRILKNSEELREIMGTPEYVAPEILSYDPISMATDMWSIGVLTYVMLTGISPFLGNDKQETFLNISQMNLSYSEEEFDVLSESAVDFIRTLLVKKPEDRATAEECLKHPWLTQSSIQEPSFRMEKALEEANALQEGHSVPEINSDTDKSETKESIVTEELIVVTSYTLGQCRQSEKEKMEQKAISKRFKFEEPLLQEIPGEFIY
For test [5], the system named is Receptor-type tyrosine-protein kinase FLT3 (Homo sapiens), P36888 [UNDEFINED MUTATION]. The test is described as follows: Inhibition of FLT3 ITD mutant (unknown origin) at 10 uM by Ambit Kinomescan binding assay relative to control.
Test [6] concerns the target T1, Eukaryotic elongation factor 2 kinase (Homo sapiens) (UniProt O00418).
T1 sequence (whole entry): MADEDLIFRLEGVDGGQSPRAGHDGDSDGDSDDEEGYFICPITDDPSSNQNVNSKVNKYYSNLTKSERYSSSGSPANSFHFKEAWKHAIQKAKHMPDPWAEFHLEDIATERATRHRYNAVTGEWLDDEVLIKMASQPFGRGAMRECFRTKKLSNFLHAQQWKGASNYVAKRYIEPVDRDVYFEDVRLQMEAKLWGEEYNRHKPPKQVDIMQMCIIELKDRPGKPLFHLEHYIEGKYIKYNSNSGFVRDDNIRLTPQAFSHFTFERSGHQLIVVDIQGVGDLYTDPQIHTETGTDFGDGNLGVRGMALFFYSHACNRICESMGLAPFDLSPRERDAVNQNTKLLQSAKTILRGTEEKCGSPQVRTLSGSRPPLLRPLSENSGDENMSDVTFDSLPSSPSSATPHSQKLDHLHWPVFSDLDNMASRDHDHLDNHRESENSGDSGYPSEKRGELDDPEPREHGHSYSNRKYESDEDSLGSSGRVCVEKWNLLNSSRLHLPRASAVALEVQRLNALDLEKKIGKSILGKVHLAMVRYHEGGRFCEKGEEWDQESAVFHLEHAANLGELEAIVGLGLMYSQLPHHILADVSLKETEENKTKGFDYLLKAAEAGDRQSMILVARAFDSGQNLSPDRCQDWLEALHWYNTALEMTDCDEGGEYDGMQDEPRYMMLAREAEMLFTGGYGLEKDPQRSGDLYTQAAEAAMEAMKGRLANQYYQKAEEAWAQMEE
Kind of test: Inhibition of eEF2K ATP labeling site harbouring YIKYNSNSGFVR in human A-375 cells at 0.05 uM by KiNativ Profiling analysis relative to control. In kind it is cell-based.

Test [7] deals with Rho-associated protein kinase 1 (Homo sapiens) (UniProt Q13464). The test is described as follows: Inhibition of ROCK1 in human Huh-7 cells at 10 uM by KiNativ Profiling analysis relative to control. It counts as cell-based.
Test [8] addresses Ribosomal protein S6 kinase alpha-3 (Homo sapiens) (UniProt P51812). Kind of test: Inhibition of RSK2 Domain 1 ACT labeling site harbouring LTDFGLSKESIDHEKK in human Huh-7 cells at 10 uM by KiNativ Profiling analysis relative to control. It counts as cell-based.
Test [9] in a line: Inhibition of MAP3K2/3 K2 labeling site in human Huh-7 cells at 1 uM by KiNativ Profiling analysis relative to control. As to conditions: condition cancer.
Test [10] concerns Proto-oncogene tyrosine-protein kinase receptor Ret (Homo sapiens), P07949 [M918T]. Kind of test: Inhibition of RET M918T mutant (unknown origin) at 10 uM by Ambit Kinomescan binding assay relative to control; values are per cent of control.
Test [11] deals with Mitogen-activated protein kinase 3 (Homo sapiens) (UniProt P27361). The test is described as follows: Inhibition of Erk1 Lys2 labeling site harbouring YIHSANVLHRDLKPSNLLINTTCDLK in human Huh-7 cell lysate at 1 uM by KiNativ Profiling analysis relative to control. In kind it is subcellular.
Sequence of Mitogen-activated protein kinase 3 (Homo sapiens) (P27361 whole entry, the tested form may be a part): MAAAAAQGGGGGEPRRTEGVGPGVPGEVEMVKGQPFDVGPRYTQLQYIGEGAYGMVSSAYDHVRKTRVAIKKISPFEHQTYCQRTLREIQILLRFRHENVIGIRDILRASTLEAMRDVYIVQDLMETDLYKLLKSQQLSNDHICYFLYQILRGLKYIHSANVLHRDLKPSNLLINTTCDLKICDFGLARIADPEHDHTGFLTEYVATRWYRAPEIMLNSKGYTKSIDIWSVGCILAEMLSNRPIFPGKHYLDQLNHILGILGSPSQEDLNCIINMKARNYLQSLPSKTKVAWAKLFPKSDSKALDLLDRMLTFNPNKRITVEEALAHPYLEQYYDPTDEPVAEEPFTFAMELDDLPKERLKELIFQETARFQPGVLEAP
Test [12] deals with Ribosomal protein S6 kinase alpha-4 (Homo sapiens) (UniProt O75676). Kind of test: Inhibition of MSK2 domain1 ATP labeling site in human Huh-7 cell lysate at 1 uM by KiNativ Profiling analysis relative to control. In kind it is subcellular.
For test [13], the target named is Ribosomal protein S6 kinase alpha-3 (Homo sapiens) (UniProt P51812). Kind of test: Inhibition of RSK2 domain2 Lys2 labeling site harbouring TVEYLHAQGVVHRDLKPSNILYVDESGNPESIR in human Huh-7 cell lysate at 1 uM by KiNativ Profiling analysis relative to control. In kind it is subcellular.
Sequence of Ribosomal protein S6 kinase alpha-3 (Homo sapiens) (P51812 whole entry, the tested form may be a part): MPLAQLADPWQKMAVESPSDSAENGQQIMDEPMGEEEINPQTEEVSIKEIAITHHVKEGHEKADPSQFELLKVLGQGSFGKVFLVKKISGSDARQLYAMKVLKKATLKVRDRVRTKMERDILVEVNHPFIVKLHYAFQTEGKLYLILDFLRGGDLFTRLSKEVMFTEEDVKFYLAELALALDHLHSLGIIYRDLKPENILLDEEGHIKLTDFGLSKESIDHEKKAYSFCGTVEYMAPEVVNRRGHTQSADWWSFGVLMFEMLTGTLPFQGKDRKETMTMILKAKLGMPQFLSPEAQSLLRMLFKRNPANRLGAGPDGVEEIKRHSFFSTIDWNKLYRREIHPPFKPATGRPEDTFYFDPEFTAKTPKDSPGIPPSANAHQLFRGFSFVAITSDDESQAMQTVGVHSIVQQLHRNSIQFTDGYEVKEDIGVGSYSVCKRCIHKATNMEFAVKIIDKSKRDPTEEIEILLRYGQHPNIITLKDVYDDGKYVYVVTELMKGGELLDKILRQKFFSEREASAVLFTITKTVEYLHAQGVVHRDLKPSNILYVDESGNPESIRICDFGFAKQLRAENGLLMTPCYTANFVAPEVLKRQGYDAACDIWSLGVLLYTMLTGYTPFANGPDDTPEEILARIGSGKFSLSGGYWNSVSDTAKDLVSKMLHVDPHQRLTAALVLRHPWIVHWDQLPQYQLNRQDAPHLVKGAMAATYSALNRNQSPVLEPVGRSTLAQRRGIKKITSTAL
Test [14] deals with T2, Scaffold protein ILK (Homo sapiens) (UniProt Q13418).
T2 sequence (whole entry): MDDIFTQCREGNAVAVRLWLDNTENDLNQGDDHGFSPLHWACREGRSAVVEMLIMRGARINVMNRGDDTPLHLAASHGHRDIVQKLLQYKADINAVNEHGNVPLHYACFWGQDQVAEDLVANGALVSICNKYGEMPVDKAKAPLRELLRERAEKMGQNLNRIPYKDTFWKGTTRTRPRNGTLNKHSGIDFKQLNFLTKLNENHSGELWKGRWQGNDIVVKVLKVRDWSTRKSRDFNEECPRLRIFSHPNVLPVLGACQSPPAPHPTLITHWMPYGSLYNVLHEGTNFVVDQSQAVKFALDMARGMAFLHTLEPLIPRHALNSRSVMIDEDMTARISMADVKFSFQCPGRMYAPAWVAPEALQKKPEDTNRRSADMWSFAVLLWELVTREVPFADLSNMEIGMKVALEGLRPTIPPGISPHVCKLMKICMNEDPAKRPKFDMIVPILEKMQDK
Kind of test: Inhibition of ILK Lys1 labeling site in human Huh-7 cells at 1 uM by KiNativ Profiling analysis relative to control. It counts as cell-based.

In test [15] the target is T3, Mitogen-activated protein kinase 12 (Homo sapiens) (UniProt P53778).
T3 sequence (whole entry): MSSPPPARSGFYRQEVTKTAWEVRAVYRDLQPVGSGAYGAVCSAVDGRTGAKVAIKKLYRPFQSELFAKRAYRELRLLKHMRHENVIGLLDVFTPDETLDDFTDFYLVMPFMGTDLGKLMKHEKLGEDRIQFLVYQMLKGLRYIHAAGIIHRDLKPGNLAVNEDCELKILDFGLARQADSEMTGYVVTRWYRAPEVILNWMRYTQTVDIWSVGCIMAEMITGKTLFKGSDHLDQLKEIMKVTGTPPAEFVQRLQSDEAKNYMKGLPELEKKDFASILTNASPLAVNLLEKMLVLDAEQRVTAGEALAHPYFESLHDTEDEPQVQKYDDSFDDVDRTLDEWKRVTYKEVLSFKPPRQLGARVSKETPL
Kind of test: Inhibition of p38gamma Lys2 labeling site in human Huh-7 cells at 1 uM by KiNativ Profiling analysis relative to control. It counts as cell-based.

Test [16] has as its target Rho-associated protein kinase 2 (Homo sapiens) (UniProt O75116). The test is described as follows: Inhibition of ROCK2 Lys2 labeling site in human Huh-7 cells at 1 uM by KiNativ Profiling analysis relative to control. In kind it is cell-based.

Sequence of Rho-associated protein kinase 2 (Homo sapiens) (O75116 whole entry, looked up): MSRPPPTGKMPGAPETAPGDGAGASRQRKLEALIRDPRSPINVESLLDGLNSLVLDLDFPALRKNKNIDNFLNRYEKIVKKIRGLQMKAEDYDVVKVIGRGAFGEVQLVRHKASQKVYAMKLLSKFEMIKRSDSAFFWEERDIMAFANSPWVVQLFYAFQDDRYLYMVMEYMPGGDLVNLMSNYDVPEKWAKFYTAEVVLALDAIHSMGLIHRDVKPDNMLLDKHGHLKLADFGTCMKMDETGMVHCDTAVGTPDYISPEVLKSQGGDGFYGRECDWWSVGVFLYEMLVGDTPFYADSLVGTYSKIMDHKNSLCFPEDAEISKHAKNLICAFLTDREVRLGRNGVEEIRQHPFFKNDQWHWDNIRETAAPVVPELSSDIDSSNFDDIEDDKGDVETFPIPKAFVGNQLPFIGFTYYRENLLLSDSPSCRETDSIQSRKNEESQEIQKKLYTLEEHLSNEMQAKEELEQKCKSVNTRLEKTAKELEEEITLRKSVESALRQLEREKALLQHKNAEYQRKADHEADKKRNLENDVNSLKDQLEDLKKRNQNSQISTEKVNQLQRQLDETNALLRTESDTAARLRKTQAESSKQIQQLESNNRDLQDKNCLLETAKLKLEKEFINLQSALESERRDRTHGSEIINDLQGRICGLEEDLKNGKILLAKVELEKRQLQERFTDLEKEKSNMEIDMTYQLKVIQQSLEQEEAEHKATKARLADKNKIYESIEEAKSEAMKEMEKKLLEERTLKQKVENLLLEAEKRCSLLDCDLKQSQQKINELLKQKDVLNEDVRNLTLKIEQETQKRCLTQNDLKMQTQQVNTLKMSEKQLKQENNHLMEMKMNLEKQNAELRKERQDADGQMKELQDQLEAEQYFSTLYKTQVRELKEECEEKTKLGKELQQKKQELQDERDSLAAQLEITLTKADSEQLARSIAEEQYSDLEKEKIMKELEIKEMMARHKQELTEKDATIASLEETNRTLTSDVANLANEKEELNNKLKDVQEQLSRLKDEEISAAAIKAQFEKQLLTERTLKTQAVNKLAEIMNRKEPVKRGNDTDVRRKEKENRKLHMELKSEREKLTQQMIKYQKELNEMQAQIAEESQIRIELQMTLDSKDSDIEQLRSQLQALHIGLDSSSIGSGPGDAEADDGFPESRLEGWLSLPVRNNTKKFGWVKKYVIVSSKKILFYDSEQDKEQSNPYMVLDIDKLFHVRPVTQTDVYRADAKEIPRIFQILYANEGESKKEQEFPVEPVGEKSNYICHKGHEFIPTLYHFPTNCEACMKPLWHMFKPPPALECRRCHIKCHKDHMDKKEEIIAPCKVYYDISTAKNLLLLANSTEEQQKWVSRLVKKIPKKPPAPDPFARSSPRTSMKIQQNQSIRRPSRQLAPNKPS
Sequence of RAF proto-oncogene serine/threonine-protein kinase (P04049 whole entry): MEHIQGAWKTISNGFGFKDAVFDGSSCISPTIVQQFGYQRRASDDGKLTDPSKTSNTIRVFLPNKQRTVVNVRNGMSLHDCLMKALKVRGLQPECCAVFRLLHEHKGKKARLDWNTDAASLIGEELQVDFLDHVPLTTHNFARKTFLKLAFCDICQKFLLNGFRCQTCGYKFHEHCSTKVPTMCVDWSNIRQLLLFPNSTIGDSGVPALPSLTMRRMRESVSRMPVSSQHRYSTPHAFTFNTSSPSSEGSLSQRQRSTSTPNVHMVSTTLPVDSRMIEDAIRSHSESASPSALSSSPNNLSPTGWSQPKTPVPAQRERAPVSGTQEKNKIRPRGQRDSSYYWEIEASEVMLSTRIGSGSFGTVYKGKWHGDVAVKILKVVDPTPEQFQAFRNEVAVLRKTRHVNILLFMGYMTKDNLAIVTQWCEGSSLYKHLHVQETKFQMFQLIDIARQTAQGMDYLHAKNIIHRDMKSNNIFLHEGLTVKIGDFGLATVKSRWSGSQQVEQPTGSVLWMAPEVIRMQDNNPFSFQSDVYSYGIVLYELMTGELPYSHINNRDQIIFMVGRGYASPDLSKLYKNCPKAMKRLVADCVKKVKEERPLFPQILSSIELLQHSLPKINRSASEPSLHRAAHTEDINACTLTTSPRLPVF

Regarding `CCN1CCN(Cc2ccc(NC(=O)c3ccc(C)c(/C=C/c4cnc5[nH]ccc5c4OC)c3)cc2C(F)(F)F)CC1`, in test [1], the inhibition amounted to 7.8%. Moreover, in test [2], the percent of control is 5.2%. The molecule also came in with a residual activity in test [3] of 5.7%.
As to `CCN1CCN(Cc2ccc(NC(=O)c3ccc(C)c(Oc4ccnc5[nH]ccc45)c3)cc2C(F)(F)F)CC1`, the inhibition result in test [4] was “inactive”. Moreover, the inhibition in [5] was 0.7%; in test [6] it was 12.7%; in test [7], 7.5%; in test [8], -8%. The inhibition at 1 µM in [9] was found to be 7.4%. The molecule further came in with a residual activity in [10] of 0%.
In the case of `CNc1cc(Oc2cc(C(=O)Nc3cc(N4CCN(C)CC4)cc(C(F)(F)F)c3)ccc2C)ncn1`, the inhibition in test [11] is 20.7%; in [12], -8%; in [13], 11.6%; in [14], -6.7%; in test [15], 13%; in test [16], -1%.
